# In ChEMBL document CHEMBL4421728, “Bach1 Inhibitors in Combination with Nrf2 Activators and Pharmaceutical Compositions Thereof” (2017):
# Legend:
# [1] = molecular target: T1, Transcription regulator protein BACH1 (Homo sapiens) (UniProt O14867); assay: Inhibition of Bach1 in normal human lung fibroblasts assessed as induction of HMOX protein expression by measuring HMOX positive cells level at 0.039 uM in presence of 0.03 uM Nrf2 activator DMF incubated for 16 to 18 hrs by immunostaining relative to control DMSO; design: scale not given: the % may be the effect or the level left
# T1 sequence (whole entry): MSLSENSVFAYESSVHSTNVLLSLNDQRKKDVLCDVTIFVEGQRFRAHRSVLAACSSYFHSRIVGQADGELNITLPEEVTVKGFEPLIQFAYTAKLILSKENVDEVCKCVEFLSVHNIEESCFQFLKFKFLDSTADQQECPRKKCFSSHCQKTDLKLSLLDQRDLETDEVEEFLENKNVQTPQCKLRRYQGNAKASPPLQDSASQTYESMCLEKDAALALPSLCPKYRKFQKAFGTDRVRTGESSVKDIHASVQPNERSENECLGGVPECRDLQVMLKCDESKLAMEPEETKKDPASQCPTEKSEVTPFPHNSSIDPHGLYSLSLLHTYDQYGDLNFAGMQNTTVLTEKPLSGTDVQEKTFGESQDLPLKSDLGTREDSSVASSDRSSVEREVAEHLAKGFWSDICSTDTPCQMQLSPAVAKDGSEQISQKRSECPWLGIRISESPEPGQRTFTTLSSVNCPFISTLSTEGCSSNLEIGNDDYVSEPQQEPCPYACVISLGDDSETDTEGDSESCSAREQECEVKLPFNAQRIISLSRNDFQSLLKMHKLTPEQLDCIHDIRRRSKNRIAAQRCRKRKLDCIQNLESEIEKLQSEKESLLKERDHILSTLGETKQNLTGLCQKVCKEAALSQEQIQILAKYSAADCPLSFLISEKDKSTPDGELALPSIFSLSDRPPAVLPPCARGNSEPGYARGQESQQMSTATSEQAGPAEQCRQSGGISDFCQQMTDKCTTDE
# [2] = molecular target: T1, Transcription regulator protein BACH1 (Homo sapiens); assay: Inhibition of Bach1 in normal human lung fibroblasts assessed as induction of HMOX protein expression by measuring HMOX positive cells level at 0.078 uM in presence of 10 uM Nrf2 activator DMF incubated for 16 to 18 hrs by immunostaining relative to control DMSO; design: scale not given: the % may be the effect or the level left
# [3] = molecular target: T1, Transcription regulator protein BACH1 (Homo sapiens); assay: Inhibition of Bach1 in normal human lung fibroblasts assessed as induction of HMOX protein expression by measuring HMOX positive cells level at 0.156 uM in presence of 30 uM Nrf2 activator DMF incubated for 16 to 18 hrs by immunostaining relative to control DMSO; design: scale not given: the % may be the effect or the level left
# [4] = molecular target: T1, Transcription regulator protein BACH1 (Homo sapiens); assay: Inhibition of Bach1 in normal human lung fibroblasts assessed as induction of HMOX protein expression at 0.039 uM in presence of 10 uM Nrf2 activator DMF incubated for 16 to 18 hrs by immunostaining relative to control
# [5] = molecular target: T1, Transcription regulator protein BACH1 (Homo sapiens); assay: Inhibition of Bach1 in normal human lung fibroblasts assessed as induction of HMOX protein expression by measuring HMOX positive cells level at 0.019 uM in presence of 3 uM Nrf2 activator DMF incubated for 16 to 18 hrs by immunostaining relative to control DMSO; design: scale not given: the % may be the effect or the level left
# [6] = molecular target: T1, Transcription regulator protein BACH1 (Homo sapiens); assay: Inhibition of Bach1 in normal human lung fibroblasts assessed as induction of HMOX protein expression by measuring HMOX positive cells level at 0.039 uM in presence of 1 uM Nrf2 activator DMF incubated for 16 to 18 hrs by immunostaining relative to control DMSO; design: scale not given: the % may be the effect or the level left
# [7] = molecular target: T1, Transcription regulator protein BACH1 (Homo sapiens); assay: Inhibition of Bach1 in normal human lung fibroblasts assessed as induction of HMOX protein expression by measuring HMOX positive cells level at 0.019 uM in presence of 10 uM Nrf2 activator DMF incubated for 16 to 18 hrs by immunostaining relative to control DMSO; design: scale not given: the % may be the effect or the level left
# [8] = molecular target: T1, Transcription regulator protein BACH1 (Homo sapiens); assay: Inhibition of Bach1 in normal human lung fibroblasts assessed as induction of HMOX protein expression at 0.156 uM in presence of 0.3 uM Nrf2 activator DMF incubated for 16 to 18 hrs by immunostaining relative to control
# [9] = molecular target: T1, Transcription regulator protein BACH1 (Homo sapiens); assay: Inhibition of Bach1 in normal human lung fibroblasts assessed as induction of HMOX protein expression by measuring HMOX positive cells level at 0.078 uM incubated for 16 to 18 hrs by immunostaining relative to control DMSO; design: scale not given: the % may be the effect or the level left
# [10] = molecular target: T1, Transcription regulator protein BACH1 (Homo sapiens); assay: Inhibition of Bach1 in normal human lung fibroblasts assessed as induction of HMOX protein expression at 0.019 uM in presence of 10 uM Nrf2 activator DMF incubated for 16 to 18 hrs by immunostaining relative to control
# [11] = molecular target: T1, Transcription regulator protein BACH1 (Homo sapiens); assay: Inhibition of Bach1 in normal human lung fibroblasts assessed as induction of HMOX protein expression at 0.078 uM in presence of 3 uM Nrf2 activator DMF incubated for 16 to 18 hrs by immunostaining relative to control
# [12] = molecular target: T1, Transcription regulator protein BACH1 (Homo sapiens); assay: Inhibition of Bach1 in normal human lung fibroblasts assessed as induction of HMOX protein expression at 0.078 uM in presence of 10 uM Nrf2 activator DMF incubated for 16 to 18 hrs by immunostaining relative to control
# [13] = molecular target: T1, Transcription regulator protein BACH1 (Homo sapiens); assay: Inhibition of Bach1 in normal human lung fibroblasts assessed as induction of HMOX protein expression by measuring HMOX positive cells level at 0.078 uM in presence of 0.3 uM Nrf2 activator DMF incubated for 16 to 18 hrs by immunostaining relative to control DMSO; design: scale not given: the % may be the effect or the level left
# [14] = molecular target: T1, Transcription regulator protein BACH1 (Homo sapiens); assay: Inhibition of Bach1 in normal human lung fibroblasts assessed as induction of HMOX protein expression by measuring HMOX positive cells level at 0.019 uM incubated for 16 to 18 hrs by immunostaining relative to control DMSO; design: scale not given: the % may be the effect or the level left
# [15] = molecular target: T1, Transcription regulator protein BACH1 (Homo sapiens); assay: Inhibition of Bach1 in normal human lung fibroblasts assessed as induction of HMOX protein expression at 0.019 uM in presence of 0.1 uM Nrf2 activator DMF incubated for 16 to 18 hrs by immunostaining relative to control
# [16] = molecular target: T1, Transcription regulator protein BACH1 (Homo sapiens); assay: Inhibition of Bach1 in normal human lung fibroblasts assessed as induction of HMOX protein expression by measuring HMOX positive cells level at 0.039 uM in presence of 10 uM Nrf2 activator DMF incubated for 16 to 18 hrs by immunostaining relative to control DMSO; design: scale not given: the % may be the effect or the level left
# [17] = molecular target: T1, Transcription regulator protein BACH1 (Homo sapiens); assay: Inhibition of Bach1 in normal human lung fibroblasts assessed as induction of HMOX protein expression at 0.156 uM incubated for 16 to 18 hrs by immunostaining relative to control
# [18] = molecular target: T1, Transcription regulator protein BACH1 (Homo sapiens); assay: Inhibition of Bach1 in normal human lung fibroblasts assessed as induction of HMOX protein expression at 0.019 uM in presence of 0.3 uM Nrf2 activator DMF incubated for 16 to 18 hrs by immunostaining relative to control
# [19] = molecular target: T1, Transcription regulator protein BACH1 (Homo sapiens); assay: Inhibition of Bach1 in normal human lung fibroblasts assessed as induction of HMOX protein expression by measuring HMOX positive cells level at 0.156 uM incubated for 16 to 18 hrs by immunostaining relative to control DMSO; design: scale not given: the % may be the effect or the level left
# [20] = molecular target: T1, Transcription regulator protein BACH1 (Homo sapiens); assay: Inhibition of Bach1 in normal human lung fibroblasts assessed as induction of HMOX protein expression by measuring HMOX positive cells level at 0.078 uM in presence of 3 uM Nrf2 activator DMF incubated for 16 to 18 hrs by immunostaining relative to control DMSO; design: scale not given: the % may be the effect or the level left
Compound,Activity [1] [%],Activity [2] [%],Activity [3] [%],fold change (FC) [4],Activity [5] [%],Activity [6] [%],Activity [7] [%],fold change (FC) [8],Activity [9] [%],fold change (FC) [10],fold change (FC) [11],fold change (FC) [12],Activity [13] [%],Activity [14] [%],fold change (FC) [15],Activity [16] [%],fold change (FC) [17],fold change (FC) [18],Activity [19] [%],Activity [20] [%]
CN(C)C(=O)CNC(=O)c1ccc2c(c1)nc(Nc1nc3ccc(C(F)(F)F)cc3s1)n2C,5.74,97.2,84,5.13,51.5,23.5,94.2,3.06,7.12,5.75,4.33,6.46,16.2,3.6,1.15,94.7,2.66,1.24,28.6,81.8
COCCNC(=O)c1cnc2c(c1)nc(Nc1nc3ccc(OC(F)(F)F)cc3s1)n2C,1.53,94.5,98.2,4.86,54.6,23.1,92.6,2.06,8.23,4.94,3.12,5.06,10.3,2.31,1.13,92,1.96,1.43,11.3,55.2
Cn1c(Nc2nc3ccc(C(F)(F)F)cc3s2)nc2cc(C(=O)NCCOCCO)ccc21,11.9,97.7,92.2,5.64,80.2,38.7,96.1,5.17,74,5.12,4.2,6.52,61.5,19.4,1.23,99.2,6.46,1.44,96.3,90.3
CNC(=O)c1ccc2c(c1)nc(Nc1nc3ccc(OC(F)(F)F)cc3s1)n2C,–,–,–,–,–,–,–,–,–,–,–,–,–,–,–,–,3.46,–,–,–
